From patent US20180339016A1 (priority 2015, published 2018)
Values joined by “and” are separate entries in the source; they are usually repeats but may differ in a detail not shown here. Equal values may be shown once.

Key:
[1] = tested on: Staphylococcus aureus (ATCC 29213); test: MIC of peptide against S. aureus; assay type: cell-based; conditions: peptide alone
Method: (§1) The N-terminus of the peptides were acetylated and the C-terminus was amidated. The kinked structure can rapidly reduce the alpha-helical content, thereby greatly reducing the toxicity of the peptide against host cells. In addition, because of the potential to show specificity for the Gram-negative bacterial membrane, Pro-mutants were prepared by site-directed mutagenesis. Using the prepared peptides, their MIC for the Gram-negative bacterium E. coli and the Gram-positive bacterium S. aureus and their hemolytic activity for host cells were examined (Table 1).

[2] = tested on: Escherichia coli (ATCC 25922); conditions: peptide alone; peptide concentration required to inhibit growth by 20% (so in the source)
Method: as §1
(§2) To measure the synergy between the membrane-activating peptides and the repositioning drug, a 10× compound was prepared, and then serially diluted ⅔-fold with distilled water. An MH broth (900 μl) was added to and mixed with the 10× compound (100 μl), and then 200 μL of the mixture was taken and added to a 96-well plate. E. coli cultured for one day was adjusted to 0.5 MCF using MCFarland, and diluted 10-fold, and then 10 μl of the dilution was added to each well of the plate (5×10^5 CFU/mL). After addition of the bacterial cells, plate was incubated at 37° C. for 18 hours, and then the OD value at UV-Vis (600 nm) was measured. Cell viability (%)=(OD600 of sample−OD600 of negative control)/(OD600 of positive control−OD600 of negative control)×100.

E. coli ATCC 25922 [3] = test: Antibiotic interaction assay (Wimley), 2/3 broth microdilution: MIC alone, MIC of combination, FICI; assay type: cell-based; conditions: for MIC of combination (μM): antibiotic (colistin): colistin concentration in combination with labelled peptide; for MIC of peptide: peptide alone
Method: Synergy was evaluated by an antibiotic interaction assay (Wimley, 2015) Using the method of Wimley (BBA, 2015, v. 1848(1), pp. 8-15), synergy between the membrane-activating peptide and an antibiotic was measured by an FICI value (FIG. 17). […] Thus, to accurately examine synergy, a ⅔ dilution method which observes MIC at denser concentration intervals is advantageous over a ½ dilution method in statistical terms. […] In the same manner, the MIC of an antibiotic or repositioning drug (second line) is measured. In the third line, the two compounds are mixed after putting half amount each, and the MIC thereof is measured.
A broth microdilution technique (⅔ dilution) was used together with an MH broth. E. coli treated with an antibiotic and the peptide was incubated in a 37° C. incubator for 18 hours.
as §2

E. coli ATCC 25922 [4] = conditions: Table 4
[5] = labelled peptide + colistin + linezolid
[6] = three compounds: labelled peptide + colistin + linezolid

Substance	MIC [μM] Against S. aureus [1]	MIC [μM] Against E. coli [2]	other results
KLLKPLKKLLKLLK [KL-L5P]	20 µM	5.0 µM	
KLPKLLKKLLKLLK [KL-L3P]	20 µM	10 µM	
KLR8KLLKKPLS5LLK [st 3, 11]		2.5 µM	MIC of combination (μM): antibiotic (colistin) (E. coli ATCC 25922 [3]): 0.12 µM; FICI of peptide with colistin (E. coli ATCC 25922 [3]; labelled peptide + colistin): 0.86; FICIPeptide (E. coli ATCC 25922 [3]; labelled peptide + colistin): 0.59; FICIcolistin / FICIantibiotic (E. coli ATCC 25922 [3]; labelled peptide + colistin): 0.27; FICI of peptide with colistin and linezolid (E. coli ATCC 25922 [3]; [5]): 0.70; FICIPeptide (E. coli ATCC 25922 [3]; [5]): 0.11; FICIcolistin (E. coli ATCC 25922 [3]; [5]): 0.25; FICIlinezolid (E. coli ATCC 25922 [3]; [5]): 0.33; MIC of peptide (E. coli ATCC 25922 [3]): 2.5 µM; MIC of combination (μM): peptide (E. coli ATCC 25922 [3]; peptide concentration in combination with colistin): 0.61 µM; MIC of combination (μM): colistin (E. coli ATCC 25922 [3]; [6]): 0.060 µM; MIC of combination (μM): linezolid (E. coli ATCC 25922 [3]; [6]): 15 µM; MIC of combination (μM): peptide (E. coli ATCC 25922 [3]; [6]): 0.30 µM
KPLKLLKKLLKLLK [KL-L2P]	20 µM	5 µM	
LKKLLKLLKKLLKL	20 µM	20 µM	
LKKLLKLLKKPLKL [LK-L11P]	>40 µM	5 µM	Fractional Inhibitory Concentration Index (FICI), Colistin & 1 μM peptide (E. coli ATCC 25922 [4]): 0.83, Synergism; MIC (μM) against E. coli ATCC 25922, Peptide alone (E. coli ATCC 25922 [4]; bacterial growth <10% of control): 3 µM
LKKLLKLLKKPPKL [LK-L11PL12P]	>40 µM	2.5 µM	
LKKLLKLLKPLLKL [LK-K10P]	5.0 µM	5.0 µM	
LKKLLKLLPKLLKL [LK-K9P]	5.0 µM	5.0 µM	
LKKLLKLPKKPLKL [LK-L8PL11P]	>40 µM	40 µM	
LKKLLKPLKKLLKL [LK-L7P]	20 µM	2.5 µM	
LKKLLKPLKKPLKL [LK-L7PL11P]	>40 µM	20 µM	
LKKLLKPPKKLLKL [LK-L7PL8P]	>40 µM	40 µM	MIC of combination (μM): antibiotic (colistin) (E. coli ATCC 25922 [3]): 0.09 µM; FICI of peptide with colistin (E. coli ATCC 25922 [3]; labelled peptide + colistin): 0.3 and 0.34; FICIPeptide (E. coli ATCC 25922 [3]; labelled peptide + colistin): 0.16; FICIcolistin / FICIantibiotic (E. coli ATCC 25922 [3]; labelled peptide + colistin): 0.18; FICI of peptide with colistin and linezolid (E. coli ATCC 25922 [3]; [5]): 0.27; FICIPeptide (E. coli ATCC 25922 [3]; [5]): 0.07; FICIcolistin (E. coli ATCC 25922 [3]; [5]): 0.09; FICIlinezolid (E. coli ATCC 25922 [3]; [5]): 0.11; FICI of peptide with linezolid (E. coli ATCC 25922 [3]; labelled peptide + linezolid): 0.53; FICIPeptide (E. coli ATCC 25922 [3]; labelled peptide + linezolid): 0.26; FICIlinezolid (E. coli ATCC 25922 [3]; labelled peptide + linezolid): 0.27; FICI of peptide with linezolid (E. coli ATCC 25922 [3]; labelled peptide + linezolid, listed as LK-L7P/L8P): about 0.53; MIC of combination (μM): linezolid (E. coli ATCC 25922 [3]; linezolid concentration in combination with labelled peptide): 22 µM; MIC of peptide (E. coli ATCC 25922 [3]): 53 µM; MIC of combination (μM): peptide (E. coli ATCC 25922 [3]; peptide concentration in combination with linezolid): 14 µM; MIC of combination (μM): colistin (E. coli ATCC 25922 [3]; [6]): 0.040 µM; MIC of combination (μM): linezolid (E. coli ATCC 25922 [3]; [6]): 5.9 µM; MIC of combination (μM): peptide (E. coli ATCC 25922 [3]; [6]): 4.7 µM
LKKLLPLLKKLLKL [LK-K6P]	5.0 µM	2.5 µM	
LKKLPKLLKKLLKL [LK-L5P]	20 µM	5.0 µM	
LKKLPKLLKKPLKL [LK-L5PL11P]	>40 µM	40 µM	
LKKLPKLPKKLLKL [LK-L5PL8P]	>40 µM	20 µM	
LKKPLKLLKKLLKL [LK-L4P]	40 µM	5 µM	
LKKPLKLLKKPLKL [LK-L4PL11P]	>40 µM	>40 µM	
LKKPLKLPKKLLKL [LK-L4PL8P]	>40 µM	40 µM	
LKKPPKLLKKLLKL [LK-L4PL5P]	>40 µM	5 µM	
